# Results as given in patent US20110039762A1, “TARGETED ANTIMICROBIAL MOIETIES” (C3 JIAN, INC., priority 2009, published 2011).
# “Also recorded” adds a separate entry of the source.
# Legend:
# [1] = system: microorganisms; assay: Peptides having multiple activities (targeting/binding, antimicrobial, growth or phenotype altering)
# Text: In certain embodiments, peptides described herein can have multiple activities. Thus for example, a peptide can have both binding/targeting activity and antimicrobial activity. Such peptides can be used, e.g., in a chimeric construct, for any or all of these properties. Thus, for example, a peptide designated “B” in Table 8 can be used as a targeting peptide. If it is also designated G or M it can also be used for antimicrobial activity.
# [2] = system: MRSA; assay: Kill or inhibit growth/proliferation; morphology, biofilm and growth disruption (Tables 5, 6); type: cell-based, Methicillin-resistant Staphylococcus aureus; parameters: key: A: Peptide aggregates; B: Less hyphal formation; Clumps; Diffuse clumps and small polyps; F: Diffuse growth; H: Thin; I: Growth inhibition; Microcolony formation; Rippled; Small polyps; Thick; W: Halo formation on top, microlonies on bottom; also: test concentration or dose not given here
# [3] = system: C. jeikeium; assay: as above; type: cell-based, Corynebacterium jeikeium; parameters: key: A: Peptide aggregates; B: Less hyphal formation; Clumps; Diffuse clumps and small polyps; F: Diffuse growth; H: Thin; I: Growth inhibition; Microcolony formation; Rippled; Small polyps; Thick; W: Halo formation on top, microlonies on bottom; also: test concentration or dose not given here
# [4] = system: microorganisms (e.g., bacteria, yeasts, fungi); assay: Targeting peptide binding to target microorganisms (Table 3); conditions: preferably 1x PBS
# [5] = system: S. epidermidis; assay: Kill or inhibit growth/proliferation; morphology, biofilm and growth disruption (Tables 5, 6); type: cell-based, Staphylococcus epidermidis; parameters: key: A: Peptide aggregates; B: Less hyphal formation; Clumps; Diffuse clumps and small polyps; F: Diffuse growth; H: Thin; I: Growth inhibition; Microcolony formation; Rippled; Small polyps; Thick; W: Halo formation on top, microlonies on bottom; also: test concentration or dose not given here
# [6] = system: E. coli; assay: as above; type: cell-based, Escherichia coli; parameters: key: A: Peptide aggregates; B: Less hyphal formation; Clumps; Diffuse clumps and small polyps; F: Diffuse growth; H: Thin; I: Growth inhibition; Microcolony formation; Rippled; Small polyps; Thick; W: Halo formation on top, microlonies on bottom; also: test concentration or dose not given here
# [7] = system: C. jejuni; assay: as above; type: cell-based, Campylobacter jejuni; parameters: key: A: Peptide aggregates; B: Less hyphal formation; Clumps; Diffuse clumps and small polyps; F: Diffuse growth; H: Thin; I: Growth inhibition; Microcolony formation; Rippled; Small polyps; Thick; W: Halo formation on top, microlonies on bottom; also: test concentration or dose not given here
# [8] = system: E. faecalis; assay: as above; type: cell-based, Enterococcus faecalis; parameters: key: A: Peptide aggregates; B: Less hyphal formation; Clumps; Diffuse clumps and small polyps; F: Diffuse growth; H: Thin; I: Growth inhibition; Microcolony formation; Rippled; Small polyps; Thick; W: Halo formation on top, microlonies on bottom; also: test concentration or dose not given here
# [9] = system: S. pneumoniae; assay: as above; type: cell-based, Streptococcus pneumoniae; parameters: key: A: Peptide aggregates; B: Less hyphal formation; Clumps; Diffuse clumps and small polyps; F: Diffuse growth; H: Thin; I: Growth inhibition; Microcolony formation; Rippled; Small polyps; Thick; W: Halo formation on top, microlonies on bottom; also: test concentration or dose not given here
# [10] = system: M. luteus; assay: as above; type: cell-based, Micrococcus luteus; parameters: key: A: Peptide aggregates; B: Less hyphal formation; Clumps; Diffuse clumps and small polyps; F: Diffuse growth; H: Thin; I: Growth inhibition; Microcolony formation; Rippled; Small polyps; Thick; W: Halo formation on top, microlonies on bottom; also: test concentration or dose not given here
# [11] = microorganism(s) the targeting peptide binds, binding in aqueous buffers depending on peptide solubility
# [12] = microorganism(s) the targeting peptide binds, peptide binding conducted in aqueous buffers varied by peptide solubility
Substance,Activities [1],"Organism, effect [2]","Organism, effect [3]","Target(s) ([4]; microorganism the targeting peptide binds, binding in aqueous buffers varied by peptide solubility)","Organism, effect [5]","Target(s) [4, 11]","Organism, effect [6]","Organism, effect [7]","Organism, effect [8]","Organism, effect [9]","Target(s) [4, 12]","Organism, effect [10]",Target(s) (microorganisms bound by the targeting peptide) ([4]; peptide binding in aqueous buffers varied by peptide solubility)
PF-011: peptide having multiple activities (chain 1 MFCYYKQHKGDNFSIEEVKNIIADNEMKVN; chain 2 MFCYYKQHKGDNFSIEEVKNIIADNEMKVN; Peptide with targeting and/or antimicrobial activity),G B,MRSA (R),C. jeikeium (C),M. luteus; also recorded: E. coli; also recorded: P. aeruginosa; also recorded: S. pneumoniae; also recorded: C. jeikeium,–,–,–,–,–,–,–,–,–
PF-032 (RIVVPAHQSNMASTPNLSITP; Peptide with targeting and/or antimicrobial activity),–,–,C. jeikeium (C),–,S. epidermidis (S),–,–,–,–,–,–,–,–
PF-133: peptide having multiple activities (GDPTAGQKPVECP; Peptide with targeting and/or antimicrobial activity),G B,–,C. jeikeium (R),–,–,S. epidermidis; also recorded: C. jeikeium; also recorded: C. jejuni; also recorded: M. smegmatis,–,–,–,–,–,–,–
PF-135: peptide having multiple activities (PPARPARIPQTPTLHGASLFRQRS; Peptide with targeting and/or antimicrobial activity),G B,–,C. jeikeium (R),–,–,S. epidermidis and M. luteus and E. coli and P. aeruginosa and MRSA and C. jeikeium and M. smegmatis,–,–,–,–,–,–,–
PF-164: peptide having multiple activities (EEVSRALAGIGLGLGCRIG; Peptide with targeting and/or antimicrobial activity),G B,–,C. jeikeium (R),–,–,S. epidermidis; also recorded: M. luteus; also recorded: E. coli; also recorded: C. jeikeium,–,–,–,–,–,–,–
PF-188: peptide having multiple activities (ARTFAGRLGTRYFGGLMRSTKA; Peptide with targeting and/or antimicrobial activity),G B,–,C. jeikeium (H),–,–,S. epidermidis and M. luteus and E. coli and C. albicans and MRSA and E. faecalis,–,–,–,–,–,–,–
PF-363: peptide having multiple activities (chain 1 SMLSVTVMCLMHASVAANQAMEKKV; chain 2 SMLSVTVMCLMHASVAANQAMEKKV; Peptide with targeting and/or antimicrobial activity),G B,MRSA (H),–,–,S. epidermidis (S),B. subtilis; also recorded: E. coli; also recorded: P. aeruginosa; also recorded: C. albicans; also recorded: S. pneumoniae; also recorded: E. faecalis,E. coli (C),C. jejuni (D),E. faecalis (D),S. pneumoniae (R),–,–,–
PF-390: peptide having multiple activities (chain 1 VVAYVITQVGAIRF; chain 2 VVAYVITQVGAIRF; Peptide with targeting and/or antimicrobial activity),G B,MRSA (D),–,–,S. epidermidis (D),–,E. coli (C),C. jejuni (D),E. faecalis (D),S. pneumoniae (D),S. epidermidis and P. aeruginosa and C. albicans and MRSA,–,–
PF-562: peptide having multiple activities (chain 1 TPEQWLERSTVVVTGLLNRK; chain 2 TPEQWLERSTVVVTGLLNRK; Peptide with targeting and/or antimicrobial activity),G B,MRSA (M),–,–,S. epidermidis (A),–,–,C. jejuni (R),–,S. pneumoniae (D),–,M. luteus (R),–
PF-584: peptide having multiple activities (SYIKNLSNQKFLIAF; Peptide with targeting and/or antimicrobial activity),G B,MRSA (D),–,–,S. epidermidis (C),–,E. coli (C),C. jejuni (D),E. faecalis (D),S. pneumoniae (D),S. epidermidis and M. luteus and P. mirabilis and C. albicans and MRSA and S. pneumoniae and E. faecalis and C. jeikeium,–,–
PF-586: peptide having multiple activities (FFNQANYFFKEF; Peptide with targeting and/or antimicrobial activity),G B,MRSA (D),–,–,S. epidermidis (C),–,E. coli (C),C. jejuni (D),E. faecalis (D),S. pneumoniae (D),–,–,–
PF-592: peptide having multiple activities (IMKNYKYFKLFIVKYALF; Peptide with targeting and/or antimicrobial activity),G B,MRSA (D),–,–,S. epidermidis (M),–,E. coli (C),C. jejuni (S),E. faecalis (D),S. pneumoniae (D),–,–,–
PF-595: peptide having multiple activities (LQNKIYELLYIKERSKLCS; Peptide with targeting and/or antimicrobial activity),G B,MRSA (D),–,–,S. epidermidis (C),–,E. coli (C),C. jejuni (D),E. faecalis (D),S. pneumoniae (R),–,–,–
PF-596: peptide having multiple activities (SKMWDKILTILILILELIRELIKL; Peptide with targeting and/or antimicrobial activity),G B,MRSA (D),–,–,S. epidermidis (D),–,E. coli (C),C. jejuni (D),E. faecalis (D),S. pneumoniae (D),–,–,–
PF-598: peptide having multiple activities (MKFMLEVRNKAISAYKEITRTQI; Peptide with targeting and/or antimicrobial activity),G B,MRSA (D),–,–,S. epidermidis (R),–,E. coli (C),C. jejuni (R),E. faecalis (R),S. pneumoniae (R),–,–,S. epidermidis and M. luteus and P. mirabilis and P. aeruginosa and C. albicans and MRSA and S. pneumoniae and C. jeikeium
PF-610: peptide having multiple activities (VFLKLKTSKIDLASIIFYP; Peptide with targeting and/or antimicrobial activity),G B,MRSA (D),–,–,S. epidermidis (C),–,E. coli (C),C. jejuni (D),E. faecalis (D),S. pneumoniae (D),–,–,–
PF-615: peptide having multiple activities (FLNRFIFYIFTVKTKSALIKNLFLD; Peptide with targeting and/or antimicrobial activity),G B,MRSA (D),–,–,S. epidermidis (D),–,E. coli (C),C. jejuni (D),E. faecalis (D),S. pneumoniae (D),–,–,–
